Legend:
[1] = molecular target: T1, Golgi mannosidase II in MDAY-D2 tumor cells (Mus musculus, UniProt P27046); assay: L-PHA cell assay for inhibition of mannosidase II in cells (alkaline phosphatase readout); assay type: cell-based, murine
T1 construct: endogenous in cells; host or cells: MDAY-D2 tumor cells
T1 sequence (P27046 1-1150): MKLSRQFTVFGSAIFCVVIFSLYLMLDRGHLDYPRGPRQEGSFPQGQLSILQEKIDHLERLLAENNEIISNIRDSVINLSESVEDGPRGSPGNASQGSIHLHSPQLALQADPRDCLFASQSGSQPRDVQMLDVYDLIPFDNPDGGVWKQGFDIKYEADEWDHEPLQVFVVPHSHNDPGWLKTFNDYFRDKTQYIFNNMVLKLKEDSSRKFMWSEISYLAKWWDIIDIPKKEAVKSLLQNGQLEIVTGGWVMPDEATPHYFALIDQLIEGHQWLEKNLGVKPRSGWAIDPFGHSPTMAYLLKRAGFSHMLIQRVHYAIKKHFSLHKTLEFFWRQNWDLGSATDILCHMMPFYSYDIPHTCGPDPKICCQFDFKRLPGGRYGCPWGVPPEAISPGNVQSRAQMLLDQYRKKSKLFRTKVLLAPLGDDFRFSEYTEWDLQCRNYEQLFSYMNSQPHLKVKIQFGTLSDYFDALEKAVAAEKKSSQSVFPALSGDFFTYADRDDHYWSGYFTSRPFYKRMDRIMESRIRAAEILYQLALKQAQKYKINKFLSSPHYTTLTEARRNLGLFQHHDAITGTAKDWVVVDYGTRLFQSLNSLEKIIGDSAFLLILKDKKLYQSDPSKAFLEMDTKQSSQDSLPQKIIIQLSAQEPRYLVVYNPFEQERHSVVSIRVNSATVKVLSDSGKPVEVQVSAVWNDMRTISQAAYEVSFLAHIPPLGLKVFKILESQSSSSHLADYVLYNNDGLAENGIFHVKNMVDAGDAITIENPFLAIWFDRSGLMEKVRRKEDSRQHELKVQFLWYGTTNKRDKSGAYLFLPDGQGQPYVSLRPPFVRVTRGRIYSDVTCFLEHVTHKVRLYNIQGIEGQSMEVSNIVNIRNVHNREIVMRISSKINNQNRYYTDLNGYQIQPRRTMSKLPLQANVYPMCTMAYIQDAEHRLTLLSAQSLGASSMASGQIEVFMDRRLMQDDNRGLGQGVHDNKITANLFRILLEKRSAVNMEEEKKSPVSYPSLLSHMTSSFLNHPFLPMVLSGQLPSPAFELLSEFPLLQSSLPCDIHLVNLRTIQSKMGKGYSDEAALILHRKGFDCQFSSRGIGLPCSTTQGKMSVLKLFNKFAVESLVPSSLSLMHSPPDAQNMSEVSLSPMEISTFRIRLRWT
Method: The test compound swainsonine hydrochloride is prepared by 0.5 serial dilution of a 40 μM stock in 50 μl of 5% fetal bovine serum (FBS) in minimum essential medium (MEM). To 50 μl of diluted test samples in 96 well plates, 10,000 MDAY-D2 tumor cells in 50 μl of 5% FBS in MEM is added to each well. The samples are incubated at 37° C. overnight in a 5% CO2 incubator. Test wells are prepared in duplicate for the addition of 25 μl/well of either 5% FBS in MEM or 5% FBS in MEM containing 100 μg/ml of L-PHA. Samples are again incubated at 37° C. overnight in a 5% CO2 incubator. The viability and/or proliferation of the cells in each well is measured using phenazine methylsulfate (PMS) and (3(4,5-dimethylthiazol-2-yl-5-(3-carboxymethoxyphenyl)-2,4,sulfophenyl)-2H tetrazolium salt (“MTS”) as described in the instructions of the Promega CellTiter 96 AQ kit. The absorption is read at 490 nm. The loss of L-PHA toxicity is directly related to entry of the drug into the cells and to inhibition of Golgi mannosidase II, and loss of L-PHA binding carbohydrate structures on the cells surface.
Cells. […]
Alkaline Phosphatase Assay. […] After 15-30 min of colour development, absorbance of the chromogenic product para-nitrophenol was measured at […] using a multiwell scanning photometer (Thermomax Multiplate Reader, Molecular Devices). […]

[2] = Preformulation hygroscopicity study of bulk drug (water uptake, Karl Fischer); assay type: physicochemical; conditions: for water absorbed by Karl Fischer: after 48 hours of storage; for water absorbed: 75% RH
Method: Preformulation studies of swainsonine hydrochloride, bulk drug substance, and in combination with powder and semisolid fill gelatin capsules were conducted with respect to the following: hygroscopicity, pH, stability, and solubility. […] At 20% and 50% RH it absorbed 1.9% and 2.1% of water by Karl Fischer after 48 hours of storage. The moisture uptake diminishes when anhydrous powder excipients (e.g. lactose anhydrous and mannitol powder) are used to formulate the pharmaceutical active into a hard capsule.

Cl.O[C@H]1[C@H]2[C@H](O)CCCN2C[C@@H]1O [swainsonine hydrochloride, (−)-(1S,2S,8R,8aR)-1,2,8-trihydroxyoctahydro-indolizidine hydrochloride salt]
IC50 [1]: 57 ± 10 nM | water absorbed by Karl Fischer ([2]; 20% RH): 1.9% | water absorbed by Karl Fischer ([2]; 50% RH): 2.1% | water absorbed ([2]; first 2 hours): approximately 8 % (w/w) | water absorbed ([2]; first 8 hours): ~24 % (w/w) | hygroscopicity ([2]; bulk drug): highly hygroscopic

— patent US6395745B1, “Alkaloid halide salts of swainsonine and methods of use” (priority 1997, dated 2002)
